These compounds were tested against TBK1 (Homo sapiens (Human), UniProt Q9UHD2) (assay: TBK1 low ATP kinase assay (in vitro assay 1)). Settings: in vitro assay 1, read-out: TBK1 low ATP kinase assay IC50.
Sequence of TBK1 (Q9UHD2 whole entry): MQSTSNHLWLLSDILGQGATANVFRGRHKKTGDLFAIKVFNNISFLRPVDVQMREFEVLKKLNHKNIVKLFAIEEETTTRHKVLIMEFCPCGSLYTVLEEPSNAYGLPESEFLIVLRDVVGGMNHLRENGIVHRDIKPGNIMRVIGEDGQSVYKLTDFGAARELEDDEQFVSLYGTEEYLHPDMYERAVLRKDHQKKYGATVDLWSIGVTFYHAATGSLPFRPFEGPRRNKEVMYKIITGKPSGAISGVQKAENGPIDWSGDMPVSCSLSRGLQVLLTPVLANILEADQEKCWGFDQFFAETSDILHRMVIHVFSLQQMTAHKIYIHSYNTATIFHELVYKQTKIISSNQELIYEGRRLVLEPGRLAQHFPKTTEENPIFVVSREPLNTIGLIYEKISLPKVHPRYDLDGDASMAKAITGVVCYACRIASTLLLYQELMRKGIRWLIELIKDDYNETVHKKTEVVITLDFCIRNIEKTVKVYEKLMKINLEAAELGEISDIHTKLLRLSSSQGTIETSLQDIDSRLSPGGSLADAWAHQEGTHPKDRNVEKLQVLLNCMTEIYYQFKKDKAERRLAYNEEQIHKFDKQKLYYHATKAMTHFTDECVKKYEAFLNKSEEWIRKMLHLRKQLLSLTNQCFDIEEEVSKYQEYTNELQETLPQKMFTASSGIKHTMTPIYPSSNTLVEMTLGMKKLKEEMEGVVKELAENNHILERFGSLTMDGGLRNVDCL
Type: biochemical
Compound `CC(c1ccnc(Nc2nc3ccc(-c4cnn(CC5CCC5)c4)c(F)c3[nH]2)c1)N1CCN(C(=O)CC(F)(F)F)CC1` (single isomer, unassigned) [Example 171.02, 1-(4-{(1R or 1S)-1-[2-({6-[1-(cyclobutylmethyl)-1H-pyrazol-4-yl]-7-fluoro-1H-benzimidazol-2-yl}amino)pyridin-4-yl]ethyl}piperazin-1-yl)-3,3,3-trifluoropropan-1-one] has an IC50 of 5.95 nM. `CC(c1ccnc(Nc2nc3ccc(-c4cnn(CC5CCC5)c4)c(F)c3[nH]2)c1)N1CCN(C(=O)C2CC2)CC1` (single isomer, unassigned) [Example 171.03, (4-{(1R or 1S)-1-[2-({6-[1-(cyclobutylmethyl)-1H-pyrazol-4-yl]-7-fluoro-1H-benzimidazol-2-yl}amino)pyridin-4-yl]ethyl}piperazin-1-yl)(cyclopropyl)methanone] showed an IC50 of 2.85 nM. `Cc1cc(-c2ccc3nc(Nc4cc(C(C)N5CCN(C(=O)OC(C)(C)C)CC5)ccn4)[nH]c3c2F)ncn1` (single isomer, unassigned) [Example 172.01, tert-butyl 4-[(1R or 1S)-1-(2-{[7-fluoro-6-(6-methylpyrimidin-4-yl)-1H-benzimidazol-2-yl]amino}pyridin-4-yl)ethyl]piperazine-1-carboxylate] gave an IC50 of 39.8 nM. In the case of `Cc1cc(-c2ccc3nc(Nc4cc(C(C)N5CCN(C(=O)CC(F)(F)F)CC5)ccn4)[nH]c3c2F)ncn1` (single isomer, unassigned) [Example 172.02, 3,3,3-trifluoro-1-{4-[(1R or 1S)-1-(2-{[7-fluoro-6-(6-methylpyrimidin-4-yl)-1H-benzimidazol-2-yl]amino}pyridin-4-yl)ethyl)piperazin-1-yl}propan-1-one], the IC50 is reported as 12.1 nM. Compound `Cc1cc(-c2ccc3nc(Nc4cc(C(C)N5CCN(C(=O)C6CC6)CC5)ccn4)[nH]c3c2F)ncn1` (single isomer, unassigned) [Example 172.03, cyclopropyl{4-[(1R or 1S)-1-(2-{[7-fluoro-6-(6-methylpyrimidin-4-yl)-1H-benzimidazol-2-yl]amino}pyridin-4-yl)ethyl]piperazin-1-yl}methanone] has an IC50 of 15 nM. `Cc1cc(-c2ccc3nc(Nc4cc(C(C)N5CCN(C(=O)C6(C(F)(F)F)CC6)CC5)ccn4)[nH]c3c2F)ncn1` (single isomer, unassigned) [Example 172.04, {4-[(1R or 1S)-1-(2-{[7-fluoro-6-(6-methylpyrimidin-4-yl)-1H-benzimidazol-2-yl]amino}pyridin-4-yl)ethyl]piperazin-1-yl}[1-(trifluoromethyl)cyclopropyl]methanone] gave an IC50 of 20.9 nM. `CC(c1ccnc(Nc2nc3ccc(-c4cc(C(F)(F)F)ncn4)c(F)c3[nH]2)c1)N1CCN(C(=O)OC(C)(C)C)CC1` (single isomer, unassigned) [Example 173.01, tert-butyl 4-{(1R or 1S)-1-[2-({7-fluoro-6-[6-(trifluoromethyl)pyrimidin-4-yl]-1H-benzimidazol-2-yl}amino)pyridin-4-yl]ethyl}piperazine-1-carboxylate] showed an IC50 of 396 nM. `CC(c1ccnc(Nc2nc3ccc(-c4cc(C(F)(F)F)ncn4)c(F)c3[nH]2)c1)N1CCN(C(=O)CC(F)(F)F)CC1` (single isomer, unassigned) [Example 173.02, 3,3,3-trifluoro-1-(4-{(1R or 1S)-1-[2-({7-fluoro-6-[6-(trifluoromethyl)pyrimidin-4-yl]-1H-benzimidazol-2-yl}amino)pyridin-4-yl]ethyl}piperazin-1-yl)propan-1-one] was tested, and the IC50 was 77.1 nM. Compound `CC(c1ccnc(Nc2nc3ccc(-c4cc(C(F)(F)F)ncn4)c(F)c3[nH]2)c1)N1CCN(C(=O)C2CC2)CC1` (single isomer, unassigned) [Example 173.03, cyclopropyl(4-{(1R or 1S)-1-[2-({7-fluoro-6-[6-(trifluoromethyl)pyrimidin-4-yl]-1H-benzimidazol-2-yl}amino)pyridin-4-yl]ethyl}piperazin-1-yl)methanone] has an IC50 of 50.6 nM. In the case of `CC(c1ccnc(Nc2nc3ccc(-c4cc(C(F)(F)F)ncn4)c(F)c3[nH]2)c1)N1CCN(C(=O)C2(C(F)(F)F)CC2)CC1` (single isomer, unassigned) [Example 173.04, (4-{(1R or 1S)-1-[2-({7-fluoro-6-[6-(trifluoromethyl)pyrimidin-4-yl]-1H-benzimidazol-2-yl}amino)pyridin-4-yl]ethyl}piperazin-1-yl)[1-(trifluoromethyl)cyclopropyl]methanone], the IC50 is reported as 149 nM. `CC(c1ccnc(Nc2nc3ccc(-c4cc(C(F)F)ncn4)cc3[nH]2)c1)N1CCN(C(=O)OC(C)(C)C)CC1` (single isomer, unassigned) [Example 174.01, tert-butyl 4-{(1R or 1S)-1-[2-({6-[6-(difluoromethyl)pyrimidin-4-yl]-1H-benzimidazol-2-yl}amino)pyridin-4-yl]ethyl}piperazine-1-carboxylate] was tested, and the IC50 was 11.1 nM. For `CC(c1ccnc(Nc2nc3ccc(-c4cc(C(F)F)ncn4)cc3[nH]2)c1)N1CCN(C(=O)CC(F)(F)F)CC1` (single isomer, unassigned) [Example 174.02, 1-(4-{(1R or 1S)-1-[2-({6-[6-(difluoromethyl)pyrimidin-4-yl]-1H-benzimidazol-2-yl}amino)pyridin-4-yl]ethyl}piperazin-1-yl)-3,3,3-trifluoropropan-1-one], the IC50 was 3.63 nM. With `CC(c1ccnc(Nc2nc3ccc(-c4cc(C(F)F)ncn4)cc3[nH]2)c1)N1CCN(C(=O)C2CC2)CC1` (single isomer, unassigned) [Example 174.03, cyclopropyl(4-{(1R or 1S)-1-[2-({6-[6-(difluoromethyl)pyrimidin-4-yl]-1H-benzimidazol-2-yl}amino)pyridin-4-yl]ethyl}piperazin-1-yl)methanone] the IC50 was 3.26 nM. `CC(c1ccnc(Nc2nc3ccc(-c4cc(N(C)CC5CC5)ncn4)cc3[nH]2)c1)N1CCN(C(=O)C2(C(F)(F)F)CC2)CC1` (single isomer, unassigned) [Example 197.04, {4-[(1R or 1S)-1-{2-[(6-{6-[(cyclopropylmethyl)(methyl)amino]pyrimidin-4-yl}-1H-benzimidazol-2-yl)amino]pyridin-4-yl}ethyl]piperazin-1-yl}[1-(trifluoromethyl)cyclopropyl]methanone] gave an IC50 of 6.46 nM. `COc1c(Cl)ncnc1-c1ccc2nc(Nc3cc(CN4CCN(C(=O)OC(C)(C)C)CC4)ccn3)[nH]c2c1` [Compound 60.01, tert-butyl 4-[(2-{[6-(6-chloro-5-methoxypyrimidin-4-yl)-1H-benzimidazol-2-yl]amino}pyridin-4-yl)methyl]piperazine-1-carboxylate] showed an IC50 of 110 nM. For `Cc1cc(-c2ccc3nc(Nc4cc(CN5CCN(C(=O)OC(C)(C)C)CC5)ccn4)[nH]c3c2)ccn1` [Example 01.01, tert-butyl 4-[(2-{[6-(2-methylpyridin-4-yl)-1H-benzimidazol-2-yl]amino}pyridin-4-yl)methyl]piperazine-1-carboxylate], the IC50 was 150 nM. With `Cc1cc(-c2ccc3nc(Nc4cc(CN5CCN(C(=O)C6CC6)CC5)ccn4)[nH]c3c2)ccn1` [Example 01.02, cyclopropyl{4-[(2-{[6-(2-methylpyridin-4-yl)-1H-benzimidazol-2-yl]amino}pyridin-4-yl)methyl]piperazin-1-yl}methanone] the IC50 was 42 nM. With `Cc1cc(-c2ccc3nc(Nc4cc(CN5CCN(C(=O)CC(F)(F)F)CC5)ccn4)[nH]c3c2)ccn1` [Example 01.03, 3,3,3-trifluoro-1-{4-[(2-{[6-(2-methylpyridin-4-yl)-1H-benzimidazol-2-yl]amino}pyridin-4-yl)methyl]piperazin-1-yl}propan-1-one] the IC50 was 53.5 nM. In the case of `Cc1cc(-c2ccc3nc(Nc4cc(CN5CCN(C(=O)CC6CC6)CC5)ccn4)[nH]c3c2)ccn1` [Example 01.04, 2-cyclopropyl-1-{4-[(2-{[6-(2-methylpyridin-4-yl)-1H-benzimidazol-2-yl]amino}pyridin-4-yl)methyl]piperazin-1-yl}ethanone], the IC50 is reported as 55.5 nM. With `Cc1cc(-c2ccc3nc(Nc4cc(CN5CCN(C(=O)C6CCC6)CC5)ccn4)[nH]c3c2)ccn1` [Example 01.05, cyclobutyl{4-[(2-{[6-(2-methylpyridin-4-yl)-1H-benzimidazol-2-yl]amino}pyridin-4-yl)methyl]piperazin-1-yl}methanone] the IC50 was 70.9 nM. `COc1cc(-c2ccc3nc(Nc4cc(CN5CCN(C(=O)OC(C)(C)C)CC5)ccn4)[nH]c3c2)ccn1` [Example 02.01, tert-butyl 4-[(2-{[6-(2-methoxypyridin-4-yl)-1H-benzimidazol-2-yl]amino}pyridin-4-yl)methyl]piperazine-1-carboxylate] was tested, and the IC50 was 131 nM. `COc1cc(-c2ccc3nc(Nc4cc(CN5CCN(C(=O)C6CC6)CC5)ccn4)[nH]c3c2)ccn1` [Example 02.02, cyclopropyl{4-[(2-{[6-(2-methoxypyridin-4-yl)-1H-benzimidazol-2-yl]amino}pyridin-4-yl)methyl]piperazin-1-yl}methanone] gave an IC50 of 30.7 nM. With `COc1cc(-c2ccc3nc(Nc4cc(CN5CCN(C(=O)CC(F)(F)F)CC5)ccn4)[nH]c3c2)ccn1` [Example 02.03, 3,3,3-trifluoro-1-{4-[(2-{[6-(2-methoxypyridin-4-yl)-1H-benzimidazol-2-yl]amino}pyridin-4-yl)methyl]piperazin-1-yl}propan-1-one] the IC50 was 36.8 nM. `COc1cc(-c2ccc3nc(Nc4cc(CN5CCN(C(=O)C6CCC6)CC5)ccn4)[nH]c3c2)ccn1` [Example 02.04, cyclobutyl{4-[(2-{[6-(2-methoxypyridin-4-yl)-1H-benzimidazol-2-yl]amino}pyridin-4-yl)methyl]piperazin-1-yl}methanone] showed an IC50 of 43.4 nM. Compound `COc1cc(-c2ccc3nc(Nc4cc(CN5CCN(C(=O)CC6CC6)CC5)ccn4)[nH]c3c2)ccn1` [Example 02.05, 2-cyclopropyl-1-{4-[(2-{[6-(2-methoxypyridin-4-yl)-1H-benzimidazol-2-yl]amino}pyridin-4-yl)methyl]piperazin-1-yl}ethanone] has an IC50 of 49.8 nM. In the case of `COc1cc(-c2ccc3nc(Nc4cc(CN5CCN(C(=O)C6CC6)CC5)ccn4)[nH]c3c2)c(F)cn1` [Example 03.01, cyclopropyl{4-[(2-{[6-(5-fluoro-2-methoxypyridin-4-yl)-1H-benzimidazol-2-yl]amino}pyridin-4-yl)methyl]piperazin-1-yl}methanone], the IC50 is reported as 198 nM.
